Data from ChEMBL document CHEMBL1201862, “PubChem BioAssay data set” (2004).
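Protocol summary: plate cells (96-well), add compound at 5 concentrations, incubate 48 h, interpolate endpoints linearly. The concentration for 50% growth inhibition is given as GI50.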 Active and inactive are the calls of the source. No stated cut-off is given here; in the data, active = GI50 up to about 1.1 µM and inactive = higher.

Assays:
Assay in all cases: DTP human tumour cell line panel, 48 h
SF-539 = tested on: SF-539
M14 = tested on: M14
MDA-N = tested on: MDA-N
COLO 205 = tested on: COLO 205
OVCAR-3 = tested on: OVCAR-3
SN12C = tested on: SN12C
SNB-75 = tested on: SNB-75
Malme-3M = tested on: Malme-3M
MOLT-4 = tested on: MOLT-4
MDA-MB-231 = tested on: MDA-MB-231
Hs-578T = tested on: Hs-578T
HOP-62 = tested on: HOP-62
EKVX = tested on: EKVX
SW-620 = tested on: SW-620
UO-31 = tested on: UO-31
PC-3 = tested on: PC-3
OVCAR-8 = tested on: OVCAR-8
OVCAR-4 = tested on: OVCAR-4
SK-MEL-28 = tested on: SK-MEL-28
IGROV-1 = tested on: IGROV-1

Measured: GI50

CCOc1ccc(-n2c(=O)c3nn4c(=O)n(-c5ccc(OCC)cc5)c(=O)c4nn3c2=O)cc1
inactive: SF-539 > 100 µM | M14 > 100 µM | MDA-N > 100 µM | COLO 205 > 100 µM | OVCAR-3 > 100 µM | SN12C > 100 µM | SNB-75 20.3 µM | Malme-3M > 100 µM | MOLT-4 > 100 µM | MDA-MB-231 71.8 µM | Hs-578T 28.5 µM | HOP-62 77.8 µM | EKVX > 100 µM | SW-620 > 100 µM | UO-31 > 100 µM | PC-3 > 100 µM | OVCAR-8 > 100 µM | OVCAR-4 > 100 µM | SK-MEL-28 > 100 µM | IGROV-1 > 100 µM

COc1ccc(/N=N/C(=NNC(=O)c2ccc(C)cc2)c2ccc(N(C)C)cc2)cc1
inactive: SF-539 > 100 µM | M14 43.1 µM | MDA-N 23.8 µM | COLO 205 6.84 µM | OVCAR-3 28.4 µM | SN12C 56.6 µM | SNB-75 87.3 µM | Malme-3M 34.6 µM | MOLT-4 20.9 µM | MDA-MB-231 64.4 µM | Hs-578T > 100 µM | HOP-62 49.1 µM | EKVX 37.7 µM | SW-620 56.8 µM | UO-31 52.2 µM | PC-3 57.7 µM | OVCAR-8 40.3 µM | OVCAR-4 31.8 µM | SK-MEL-28 > 59.7 µM | IGROV-1 59.6 µM
